Here are results for three compounds from patent US6846492B2, “Use of phenylethylamine derivatives for the antimicrobial treatment of surfaces” (Ciba Specialty Chemicals Corporation, priority 2000, dated 2005).

For orientation: melting point means the temperature of the solid-liquid transition. The MIC is the least concentration at which growth counts as inhibited.

Series [1] deals with Staphylococcus hominis DMS 20328 (= SH). Nature of the series: MIC determination in microtiter plates, Staphylococcus hominis. Type of series: cell-based. To be noted: read-out: MIC [ppm] Staphylococcus hominis DSM 20328. A digest of the protocol:
(§1)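 Broth microdilution; DMSO stocks, 1:2 series. Inoculum 1−5×10^6 CFU/ml, diluted 1:100 in CASO (bacteria) or Sabouraud 2% glucose (mould). 37 °C/48 h bacteria; 28 °C/5 d A. niger. OD620 turbidity read-out; duplicates.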

Series [2] deals with Candida albicans ATCC 10231 (= CA). Nature of the series: MIC determination in microtiter plates, Candida albicans. The class given is cell-based. As to conditions: read-out: MIC [ppm] Candida albicans ATC 10231. A digest of the protocol:
as §1

Series [3] relates to Aspergillus niger ATCC 6275 (= AN). Nature of the series: MIC determination in microtiter plates, Aspergillus niger. Type of series: cell-based. As to conditions: ATCC6275, 120 h, Table 2c, 5 days at 28° C., read-out: MIC [ppm] Aspergillus niger ATCC 6275. A digest of the protocol:
as §1

Series [4] has as its system Staphylococcus aureus ATCC 9144. Nature of the series: MIC determination in microtiter plates, Staphylococcus aureus. The class given is cell-based. To be noted: read-out: MIC [ppm] Staphylococcus aureus ATCC 9144. As to the method:
(§2) Determination of the Minimum Inhibitory Concentration (MIC Value) in Microtiter Plates
(§3) Casein/soybean flour peptone bouillon for the preparation of pre-cultures of the test bacteria and yeast.
(§4) Mycological slant agar for the pre-culture of moulds
(§5) The test substances are pre-dissolved in dimethyl sulfoxide (DMSO) and tested in a dilution series of 1:2.
(§6) Bacteria and yeast are cultured overnight in CASO bouillon, the mould is cultured overnight on mycological slant agar, and washed off with 10 ml of 0.85% sodium chloride solution (+0.1% TritonX-100).
(§7) All the test organisms are adjusted to an organism count of 1−5×10^6 CFU/ml using 0.85% sodium chloride solution.
(§8) The test substances are pre-pipetted into microtiter plates in an amount of 8 μl per well.
(§9) Pre-diluted organism suspensions are diluted 1:100 in CASO bouillon (bacteria and yeast) or Sabouraud 2% glucose bouillon (mould) and are added in an amount of 192 μl per well to the test substances.
(§10) The test batches are incubated for 48 hours at 37° C. (bacteria and yeast) or for 5 days at 28° C. (mould).
(§11) After incubation, the growth is evaluated by reference to the turbidity of the test batches (optical density) at 620 nm in a microplate reader.
(§12) One microtiter plate is used for each test organism and substance concentration. All the substances are tested in duplicate.

Series [5] relates to Staphylococcus epidermidis ATCC 12228. Nature of the series: MIC determination in microtiter plates, Staphylococcus epidermidis. Type of series: cell-based. To be noted: read-out: MIC [ppm] Staphylococcus epidermidis ATCC 12228. The procedure:
as §2, §3, §4, §5, §6, §7, §8, §9, §10, §11, §12

The test system of series [6] is Corynebacterium xerosis ATCC 373. Nature of the series: MIC determination in microtiter plates, Corynebacterium xerosis. The class given is cell-based. As to conditions: read-out: MIC [ppm] Corynebacterium xerosis ATCC 373. As to the method: as §2, §3, §4, §5, §6, §7, §8, §9, §10, §11, §12
The subject of series [7] is Streptococcus sobrinus DSM 20742. Nature of the series: MIC determination in microtiter plates, Streptococcus sobrinus. To be noted: read-out: MIC [ppm] Streptococcus sobrinus DSM 20742. The class given is cell-based. The procedure: as §2, §3, §4, §5, §6, §7, §8, §9, §10, §11, §12
Series [8] concerns Enterococcus hirae ATCC 10541. Nature of the series: MIC determination in microtiter plates, Enterococcus hirae. Type of series: cell-based. To be noted: read-out: MIC [ppm] Enterococcus hirae ATCC 10541. The procedure:
as §2, §3, §4, §5, §6, §7, §8, §9, §10, §11, §12

The test system of series [9] is Streptococcus mutans ATCC 25175. Nature of the series: MIC determination in microtiter plates, Streptococcus mutans. Type of series: cell-based. To be noted: read-out: MIC [ppm] Streptococcus mutans ATCC 25175. The procedure:
as §2, §3, §4, §5, §6, §7, §8, §9, §10, §11, §12

The subject of series [10] is Porphyromonas gingivalis DSM 20709. Nature of the series: MIC determination in microtiter plates, Porphyromonas gingivalis. Type of series: cell-based. To be noted: read-out: MIC [ppm] Porphyromonas gingivalis DSM 20709. The procedure:
as §2, §3, §4, §5, §6, §7, §8, §9, §10, §11, §12

Series [11] concerns Trichophyton rubrum DSM 4167. Nature of the series: MIC determination in microtiter plates, Trichophyton rubrum. To be noted: DSM4167, 120 h, read-out: MIC [ppm] Trichophyton rubrum DSM 4167. The class given is cell-based. The procedure: as §2, §3, §4, §5, §6, §7, §8, §9, §10, §11, §12
The test system of series [12] is Epidermophyton floccosum DSM 10709. Nature of the series: MIC determination in microtiter plates, Epidermophyton floccosum. Type of series: cell-based. To be noted: DSM10709, 120 h, read-out: MIC [ppm] Epidermophyton floccosum DSM 10709. The procedure:
as §2, §3, §4, §5, §6, §7, §8, §9, §10, §11, §12

Series [13] deals with Escherichia coli NCTC 8196 (= EC). Nature of the series: MIC determination in microtiter plates, Escherichia coli. Type of series: cell-based. To be noted: NCTC8196, Table 2c, 48 hours at 37° C., read-out: MIC [ppm] Escherichia coli NCTC 8196. A digest of the protocol: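 Test substances in DMSO, 1:2 dilution series; organisms adjusted to 1−5×10^6 CFU/ml, then diluted 1:100 in CASO bouillon (bacteria) or Sabouraud 2% glucose bouillon (mould). Bacteria incubated 48 h at 37° C., mould 5 days at 28° C.; growth read as turbidity at 620 nm, in duplicate.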

Series [14] concerns Propionibacterium acnes ATCC11829. Nature of the series: MIC determination in microtiter plates, Propionibacterium acnes. Type of series: cell-based. As to conditions: Cutibacterium acnes, ATCC11829, 48 h, read-out: MIC [ppm] Propionibacterium acnes ATCC11829. As to the method: as §2, §3, §4, §5, §6, §7, §8, §9, §10, §11, §12
The test system of series [15] is Actinomyces viscosum DSM 43329. Nature of the series: MIC determination in microtiter plates, Actinomyces viscosum. Type of series: cell-based. As to conditions: DSM43329, 48 h, read-out: MIC [ppm] Actinomyces viscosum DSM 43329. The procedure: as §2, §3, §4, §5, §6, §7, §8, §9, §10, §11, §12
Series [16] deals with Selenomonas artemidis ATCC 43528. Nature of the series: MIC determination in microtiter plates, Selenomonas artemidis. The class given is cell-based. To be noted: Centipeda artemidis, ATCC43528; Table 2c; 48 hours at 37° C.; read-out: MIC [ppm] Selenomonas artemidis ATCC 43528. As to the method:
as §2, §3, §4, §5, §6, §7, §8, §9, §10, §11, §12

Series [17] relates to Trichophyton mentagrophytes ATCC 9533. Nature of the series: MIC determination in microtiter plates, Trichophyton mentagrophytes. The class given is cell-based. As to conditions: ATCC9533, 120 h, Table 2c, 5 days at 28° C., read-out: MIC [ppm] Trichophyton mentagrophytes ATCC 9533. The procedure: as §2, §3, §4, §5, §6, §7, §8, §9, §10, §11, §12

Structures are written as SMILES. ≈ marks a conversion by molar mass, not a printed value. Where a name gives a salt, the structure may show the parent alone. Read-outs that look alike come from different tables or passages of the source.

In turn, `NCCc1cc(OCc2ccccc2)c(OCc2ccccc2)c(OCc2ccccc2)c1` (as salt: hydrochloride) came in with a melting point of 130 °C.
As to `CCCCCCCCCCCCOc1ccc(CCN)cc1` [Compound 101, 1-Amino-2-(4-dodecyloxyphenyl)ethane], the MIC in [1] (DSM20328, Table 2c, 48 hours at 37° C.) was 8 µg/mL (≈ 26.2 µM); in [2] (ATCC10231, Table 2c, 48 hours at 37° C.), 50 µg/mL (≈ 164 µM); in series [3] it was 1 µg/mL (≈ 3.27 µM); in [4] (ATCC9144, Table 2c, 48 hours at 37° C.), 13 µg/mL (≈ 42.6 µM); in series [5] (ATCC12228, Table 2c, 48 hours at 37° C.), 13 µg/mL (≈ 42.6 µM); in [6] (ATCC373, Table 2c, 48 hours at 37° C.), 6 µg/mL (≈ 19.6 µM). Moreover, the MIC in series [7] (DSM20742, Table 2c, 48 hours at 37° C.) was 13 µg/mL (≈ 42.6 µM); in series [8] (ATCC10541, Table 2c, 48 hours at 37° C.), 50 µg/mL (≈ 164 µM); in series [9] (ATCC25175, Table 2c, 48 hours at 37° C.), 6 µg/mL (≈ 19.6 µM); in series [10] (DSM20709, Table 2c, 48 hours at 37° C.), 25 µg/mL (≈ 81.8 µM); in [11] (Table 2c, 5 days at 28° C.) it was 13 µg/mL (≈ 42.6 µM); in [12] (Table 2c, 5 days at 28° C.) it was 3 µg/mL (≈ 9.82 µM).
With `CCCCCCOc1ccc(CCN)cc1OCCCCCC` [Compound 102, 1-Amino-2-(3,4-dihexyloxyphenyl)ethane], the MIC in series [1] (DSM20328, 48 h) came out at 4 µg/mL (≈ 12.4 µM); in series [13], 4 µg/mL (≈ 12.4 µM); in series [2] (ATCC10231, 48 h) it was 4 µg/mL (≈ 12.4 µM); in [4] (ATCC9144, 48 h) it was 13 µg/mL (≈ 40.4 µM); in series [5] (ATCC12228, 48 h), 6 µg/mL (≈ 18.7 µM); in [6] (ATCC373, 48 h), 6 µg/mL (≈ 18.7 µM). The MIC in series [14] worked out at 13 µg/mL (≈ 40.4 µM); in [15], 13 µg/mL (≈ 40.4 µM); in series [7] (DSM20742, 48 h), 6 µg/mL (≈ 18.7 µM); in [8] (ATCC10541, 48 h), 13 µg/mL (≈ 40.4 µM); in [9] (ATCC25175, 48 h), 3 µg/mL (≈ 9.33 µM); in series [10] (DSM20709, 48 h), 2 µg/mL (≈ 6.22 µM). For the same compound, the MIC in series [16] is 25 µg/mL (≈ 77.8 µM); in [17], 25 µg/mL (≈ 77.8 µM); in [11] it was 25 µg/mL (≈ 77.8 µM); in series [12], 6 µg/mL (≈ 18.7 µM).
